# Experimental data: patent US20230381142A1, “ANTILEISHMANIAL COMPOUNDS, COMPOSITIONS AND USE THEREOF” (TRUSTEES OF BOSTON UNIVERSITY, priority 2022, published 2023)
# pEC50: −log10 of the molar value.
# What was measured:
# [1] = Property forecast index (PFI = ChromLogD7.4 + aromatic rings); type: physicochemical
# Method: At the outset of the project, compound 1 was evaluated against GSK's established criteria for antileishmanial compound advancement (Table 2). Some of these assessments were performed on racemic 1, while chiral separation was also pursued of the 1 racemate to determine the active enantiomer. […] Based on this promising profile, it progressed into medicinal chemistry optimization to better understand structure-activity relationships (SAR) toward improved potency, as well as structure-property relationships (SPR) with an eye toward reducing PFI and plasma protein binding.
# [2] = biological target: human serum albumin (Homo sapiens, UniProt P02768); test: Human serum albumin (HSA) binding, chromatographic; type: in vitro ADME
# human serum albumin, sequence (P02768 25-609): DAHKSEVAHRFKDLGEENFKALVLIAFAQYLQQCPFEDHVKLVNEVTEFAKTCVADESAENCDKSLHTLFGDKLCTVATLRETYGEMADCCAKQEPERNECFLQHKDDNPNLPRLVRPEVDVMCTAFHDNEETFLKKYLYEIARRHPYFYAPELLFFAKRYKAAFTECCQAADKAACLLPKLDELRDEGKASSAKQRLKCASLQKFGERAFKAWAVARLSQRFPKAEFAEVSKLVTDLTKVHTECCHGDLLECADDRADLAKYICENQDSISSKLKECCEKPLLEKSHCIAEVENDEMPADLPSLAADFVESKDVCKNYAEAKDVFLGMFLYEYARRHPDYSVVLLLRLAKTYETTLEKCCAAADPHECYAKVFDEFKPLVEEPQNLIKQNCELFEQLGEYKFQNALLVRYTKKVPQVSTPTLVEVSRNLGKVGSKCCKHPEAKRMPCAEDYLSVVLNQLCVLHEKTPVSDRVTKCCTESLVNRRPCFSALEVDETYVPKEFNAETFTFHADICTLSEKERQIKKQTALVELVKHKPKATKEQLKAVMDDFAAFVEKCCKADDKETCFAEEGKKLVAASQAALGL
# Method: The percentage of compound bound to human serum albumin was measured using a chromatographic method as described. Briefly, each compound was assayed on an immobilized HSA column and gradient retention times measured, with chromatographic peak detection by UV. Each retention time was then converted to a % HSA bound value using a calibration set of compounds with a known % HSA binding.
# [3] = test system: host THP-1 macrophages; test: GSK inMac assay, host cell toxicity readout (LD MAC); type: cell-based, human; details: Homo sapiens, THP-1, cytotoxicity against host THP-1 macrophages
# Method in brief: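 MAC EC50 reflects THP-1 host cell counts, measured within GSK's inMac L. donovani infection assay that also scores intracellular amastigotes and infected-cell percentage.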
# [4] = Kinetic aqueous solubility by CLND; type: physicochemical; details: kinetic from dmso stock, high-throughput CLND
# Method: Solubility of compounds using ChemiLuminescent Nitrogen Detection (CLND) was measured as described. Solubility of compounds using Charged Aerosol Detection (CAD) was measured as described. Solubility of solid compounds in Fasted Simulated Intestinal Fluid (FaSSIF) was measured as described.
# [5] = test system: HepG2 cells; test: HepG2 cytotoxicity; type: cell-based; details: Homo sapiens; toxicity against HepG2 cells
# Method: Given the literature precedents described above and the apparent narrow tolerance for R^3 substitutions observed in the primary screen compounds, a thorough and methodical assessment was undertaken of tolerated groups at the three points of diversity (R^1/R^2/R^3) for the core. At this stage of the project, all analogues were assessed using a battery of assays performed in-house at GlaxoSmithKline. For antileishmanial activity, GSK's inMac assay was utilized. This assay provides two readouts of compound potency: average number of intracellular amastigotes per infected cell (AMMAC) EC50, percentage of infected cells per well (INFCELL) EC50, as well as a toxicity output derived from the number of host cells (MAC EC50). In addition, compounds were assessed for toxicity against HepG2 cells (HEPG2 EC50). Here, AMMAC EC50 values were focused on for relative potency assessments. […] It should be noted that for all compounds assessed in this project, the measured toxicity against THP-1 macrophages either equaled or exceeded that of HepG2 hepatocytes, therefore the MAC SI is used here as the more conservative estimate of therapeutic index.
# [6] = test system: L. donovani intracellular amastigotes infecting THP-1 macrophages; test: GSK intramacrophage L. donovani assay (LD AMMAC, inMac; Assay Conditions C); type: cell-based; details: Leishmania donovani; growth inhibition of L. donovani intracellular amastigotes infecting THP-1 macrophages; read-out: LD AMMAC EC50
# Method in brief: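 EC50 values come from counting amastigotes per infected THP-1 macrophage (AMMAC). Parallel read-outs give percentage of infected cells per well (INFCELL) and a macrophage-number toxicity EC50 (MAC).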
# [7] = Artificial membrane permeability (AMP); type: in vitro ADME; details: PAMPA, pH 7.4
# Method: Passive permeability of compounds via rate of permeation through an artificial phospholipid membrane at pH 7.4 was measured in a high-throughput format, in duplicate. A solution of 1.8% phosphatidylcholine in 1% decane was added to a 96-well Millicell filter plate along with 250 μL of 50 mM phosphate buffer, pH 7.4 on the donor side, and 100 μL of the same buffer solution on the receiver side. The assay plate was shaken for 45 minutes before adding test compounds. Test compounds were then added to the filter plate and then incubated at room temperature with shaking for three hours. The donor and receiver solutions were next transferred to a 384-well plate for analysis by LC/MS.
# [8] = aqueous (not further specified)
Compound,PFI [1],HSA Binding [2],pEC50 [3],solubility [4],pEC50 [5],pEC50 [6],Papp at 3 h [7],"solubility [4, 8]"
COc1ccc(N2C(=O)c3[nH]nc(CCC(C)C)c3C2c2ccc(F)cc2)cc1 (stereo not shown) [Compound 9],9.1,98.0%,4.50,15 µM,4.10,5.60,100 nm/s,
COc1ccc(N2C(=O)c3[nH]nc(CC(C)(C)C)c3C2c2ccc(F)cc2)cc1 (stereo not shown) [Compound 10],9.0,97.4%,4.60,36 µM,4.40,5.60,170 nm/s,
C=CCCc1n[nH]c2c1C(c1ccc(F)cc1)N(c1ccc(OC)cc1)C2=O (stereo not shown) [Compound 12],8.1,97.5%,5.49,135 µM,4.30,5.80,410 nm/s,
C=C(C)CCc1n[nH]c2c1C(c1ccc(F)cc1)N(c1ccc(OC)cc1)C2=O (stereo not shown) [Compound 13],8.5,96.8%,5.80,52 µM,4.30,6.30,370 nm/s,
C=C(C)CCCc1n[nH]c2c1C(c1ccc(F)cc1)N(c1ccc(OC)cc1)C2=O (stereo not shown) [Compound 14],8.9,97.9%,4.70,17 µM,4.30,5.20,270 nm/s,
COc1ccc(N2C(=O)c3[nH]nc(CCc4ccccc4)c3C2c2ccc(F)cc2)cc1 (stereo not shown) [Compound 15],9.7,98.0%,4.60,6 µM,4.30,5.20,360 nm/s,
COc1ccc(N2C(=O)c3[nH]nc(-c4ccc5c(c4)CCC5)c3C2c2ccc(F)cc2)cc1 (stereo not shown) [Compound 16],10.6,97.8%,5.10,17 µM,4.60,5.30,130 nm/s,
COc1ccc(N2C(=O)c3[nH]nc(-c4ccc(CC(C)C)cc4)c3C2c2ccc(F)cc2)cc1 (stereo not shown) [Compound 17],11.4,98.0%,5.10,< 1 µM,4.80,5.40,340 nm/s,
CC(C)Cc1n[nH]c2c1C(c1ccc(F)cc1)N(c1ccc(O)cc1)C2=O (stereo not shown) [Compound 18],7.1,95.6%,4.40,,< 4.00,5.30,285 nm/s,≥ 430 µM
CCOc1ccc(N2C(=O)c3[nH]nc(CC(C)C)c3C2c2ccc(F)cc2)cc1 (stereo not shown) [Compound 19],8.9,97.5%,4.70,,4.30,5.80,250 nm/s,38 µM
CC(C)Cc1n[nH]c2c1C(c1ccc(F)cc1)N(c1ccc(OC(F)(F)F)cc1)C2=O (stereo not shown) [Compound 20],9.8,98.1%,5.10,,4.60,5.49,290 nm/s,5 µM
CCc1ccc(N2C(=O)c3[nH]nc(CC(C)C)c3C2c2ccc(F)cc2)cc1 (stereo not shown) [Compound 22],9.7,97.4%,4.70,,4.30,5.40,< 10 nm/s,9 µM
CC(C)Cc1n[nH]c2c1C(c1ccc(F)cc1)N(c1ccc(F)cc1)C2=O (stereo not shown) [Compound 23],8.8,97.7%,4.60,,4.30,5.20,120 nm/s,61 µM
CC(C)Cc1n[nH]c2c1C(c1ccc(F)cc1)N(c1ccc(-n3ccnc3)cc1)C2=O (stereo not shown) [Compound 28],8.1,96.3%,< 4.30,,< 4.00,5.60,< 3 nm/s,
